Each structure is given as a SMILES string. Read-outs that look alike come from different tables or passages of the source.

In test [1] the target is CDK13 (Homo sapiens (Human), UniProt Q14004). Briefly: Biochemical assay for CDK13, LanthaScreen Eu Kinase Binding Assay. Conditions: for IC50: kinase tracer 236 100 nM; for Ratio CDK7/CDK13: ratio of IC50. The source says: Binding of an inhibitor to the kinase competes for binding with the tracer, resulting in a loss of FRET signal.
A general note: Time-resolved FRET reads energy transfer from a long-lived donor to a nearby acceptor.

Test [2] has as its target T1, CDK12 (Homo sapiens (Human), UniProt Q9NYV4). The experiment in a line: Biochemical assay for CDK12 (IC50 determination), LANCE TR-FRET. The following applies: for IC50: ATP 100 μM, 60 min pre-incubation.
Test [3] concerns the target T2, CDK7 (Homo sapiens (Human), UniProt P50613). The experiment in a line: Biochemical assay for CDK7, LANCE TR-FRET. Conditions: read-out: CDK 7 IC50. As to the method:
The inhibitory activity of the test compounds was assessed by the LANCE TR-FRET assay, which detects the ATP-dependent phosphorylation of an ULight-myelin basic protein (MBP) substrate peptide (100 nM) by CDK7 (10 nM). Briefly, the enzyme reaction was run in reaction buffer (20 mM HEPES (pH 7.5), 10 mM MgCl2, 0.01% Triton x, 100 μM Sodium Orthovanadate, 1 mM DTT). The assay was performed in 384-well plate. The end concentration of the ATP substrate was 1 mM/100 μM, and that of the ULight-MBP substrate peptide was 100 nM, and of CDK7 was 10 nM. Pre-incubation of the compound and enzyme was performed for 60 min at room temperature. After 60 min incubation at room temperature, the reaction was terminated by the addition of 40 mM EDTA and 1 nM Eu-labeled anti-phospho-MBP-binding protein antibody in the buffer. […] The readout was calculated as (acceptor counts/donor counts)×1000. The IC50 values were derived by fitting a sigmoidal dose-response curve to a plot of assay readout over inhibitor concentration.
Target sequence in this assay (P50613 whole entry, looked up, species assumed): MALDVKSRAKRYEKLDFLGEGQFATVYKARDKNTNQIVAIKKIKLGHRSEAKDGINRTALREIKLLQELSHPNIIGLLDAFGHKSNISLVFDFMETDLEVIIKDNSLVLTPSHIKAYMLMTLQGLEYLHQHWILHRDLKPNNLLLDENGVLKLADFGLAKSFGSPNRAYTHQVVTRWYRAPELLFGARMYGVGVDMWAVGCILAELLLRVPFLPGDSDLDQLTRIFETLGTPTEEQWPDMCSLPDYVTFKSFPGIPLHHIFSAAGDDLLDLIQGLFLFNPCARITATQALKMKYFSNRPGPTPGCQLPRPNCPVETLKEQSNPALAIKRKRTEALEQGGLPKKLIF
Target sequence in this assay (P51946 whole entry partner, looked up, species assumed): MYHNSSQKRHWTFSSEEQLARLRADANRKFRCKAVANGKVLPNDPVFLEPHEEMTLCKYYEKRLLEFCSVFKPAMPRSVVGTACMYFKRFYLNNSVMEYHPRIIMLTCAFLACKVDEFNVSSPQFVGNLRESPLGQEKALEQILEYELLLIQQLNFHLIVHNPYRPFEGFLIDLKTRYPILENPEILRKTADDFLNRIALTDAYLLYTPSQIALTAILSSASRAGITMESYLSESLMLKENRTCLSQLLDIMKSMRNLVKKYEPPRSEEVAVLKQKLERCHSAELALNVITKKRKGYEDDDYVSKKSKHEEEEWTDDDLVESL
Target sequence in this assay (P51948 whole entry partner, looked up, species assumed): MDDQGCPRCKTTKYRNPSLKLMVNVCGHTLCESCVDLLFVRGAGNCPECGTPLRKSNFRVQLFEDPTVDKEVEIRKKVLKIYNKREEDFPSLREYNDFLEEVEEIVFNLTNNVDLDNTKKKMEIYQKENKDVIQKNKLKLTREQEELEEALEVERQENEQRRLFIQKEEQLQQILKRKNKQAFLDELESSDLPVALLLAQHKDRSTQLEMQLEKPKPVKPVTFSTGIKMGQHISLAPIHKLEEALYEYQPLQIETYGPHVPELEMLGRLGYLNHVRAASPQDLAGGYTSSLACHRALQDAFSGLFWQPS

For test [4], the target named is T1, CDK12. The experiment in a line: CDK12 plate based target engagement assay in Jurkat cells. It is filed as cell-based. Conditions: for CDK12 Target Occupancy (Tocc50) μM in Jurkat cells: 6 hours. As for the experimental part: Jurkat cells were treated with varying concentrations of the compound for 6 hours. The DMSO concentration was maintained at 0.1%. Cells were harvested and lysed. 200 μg of the lysate was incubated with 1 μM Bio-THZ531 in the presence of 1 mM DTT and incubated on a rocker at 4° C. overnight. 100 μL of this sample was added to pre-washed streptavidin coated plates and incubated at room temperature on a rocker for 2 hours. The plates were washed and incubated with CDK12 antibody for overnight at 4° C. Next day the plate was washed and incubated for 2 hours with HRP labelled anti rabbit secondary antibody. Bio-THZ531 bound CDK12 was determined using TMB substrate. […] Percentage CDK12 occupancy with the test compound was calculated over untreated control. Occupancy 50 was calculated by fitting the dose response data to sigmoidal curve fitting equation using GraphPad Prism software V5.

In test [5] the target is T1, CDK12. Briefly: Biochemical assay for CDK12 (Kd determination), kinase-tagged phage/qPCR competition binding. As for the experimental part:
Kinase-tagged T7 phage strains were grown in parallel in 24-well blocks in an E. coli host derived from the BL21 strain. E. coli were grown to log-phase and infected with T7 phage from a frozen stock (multiplicity of infection=0.4) and incubated with shaking at 32° C. until lysis (90-150 minutes). The lysates were centrifuged (6,000×g) and filtered (0.2 μm) to remove cell debris. The remaining kinases were produced in HEK-293 cells and subsequently tagged with DNA for qPCR detection. […] The liganded beads were blocked with excess biotin and washed with blocking buffer (SeaBlock (Pierce), 1% BSA, 0.05% Tween 20, 1 mM DTT) to remove unbound ligand and to reduce non-specific phage binding. […] Test compounds were prepared as 40× stocks in 100% DMSO and directly diluted into the assay. All reactions were performed in polypropylene 384-well plates in a final volume of 0.02 ml. […] The kinase concentration in the eluates was measured by qPCR.
(Quantitative PCR measures a nucleic acid by following its amplification.)
Target sequence in this assay (Q9NYV4 whole entry, species assumed): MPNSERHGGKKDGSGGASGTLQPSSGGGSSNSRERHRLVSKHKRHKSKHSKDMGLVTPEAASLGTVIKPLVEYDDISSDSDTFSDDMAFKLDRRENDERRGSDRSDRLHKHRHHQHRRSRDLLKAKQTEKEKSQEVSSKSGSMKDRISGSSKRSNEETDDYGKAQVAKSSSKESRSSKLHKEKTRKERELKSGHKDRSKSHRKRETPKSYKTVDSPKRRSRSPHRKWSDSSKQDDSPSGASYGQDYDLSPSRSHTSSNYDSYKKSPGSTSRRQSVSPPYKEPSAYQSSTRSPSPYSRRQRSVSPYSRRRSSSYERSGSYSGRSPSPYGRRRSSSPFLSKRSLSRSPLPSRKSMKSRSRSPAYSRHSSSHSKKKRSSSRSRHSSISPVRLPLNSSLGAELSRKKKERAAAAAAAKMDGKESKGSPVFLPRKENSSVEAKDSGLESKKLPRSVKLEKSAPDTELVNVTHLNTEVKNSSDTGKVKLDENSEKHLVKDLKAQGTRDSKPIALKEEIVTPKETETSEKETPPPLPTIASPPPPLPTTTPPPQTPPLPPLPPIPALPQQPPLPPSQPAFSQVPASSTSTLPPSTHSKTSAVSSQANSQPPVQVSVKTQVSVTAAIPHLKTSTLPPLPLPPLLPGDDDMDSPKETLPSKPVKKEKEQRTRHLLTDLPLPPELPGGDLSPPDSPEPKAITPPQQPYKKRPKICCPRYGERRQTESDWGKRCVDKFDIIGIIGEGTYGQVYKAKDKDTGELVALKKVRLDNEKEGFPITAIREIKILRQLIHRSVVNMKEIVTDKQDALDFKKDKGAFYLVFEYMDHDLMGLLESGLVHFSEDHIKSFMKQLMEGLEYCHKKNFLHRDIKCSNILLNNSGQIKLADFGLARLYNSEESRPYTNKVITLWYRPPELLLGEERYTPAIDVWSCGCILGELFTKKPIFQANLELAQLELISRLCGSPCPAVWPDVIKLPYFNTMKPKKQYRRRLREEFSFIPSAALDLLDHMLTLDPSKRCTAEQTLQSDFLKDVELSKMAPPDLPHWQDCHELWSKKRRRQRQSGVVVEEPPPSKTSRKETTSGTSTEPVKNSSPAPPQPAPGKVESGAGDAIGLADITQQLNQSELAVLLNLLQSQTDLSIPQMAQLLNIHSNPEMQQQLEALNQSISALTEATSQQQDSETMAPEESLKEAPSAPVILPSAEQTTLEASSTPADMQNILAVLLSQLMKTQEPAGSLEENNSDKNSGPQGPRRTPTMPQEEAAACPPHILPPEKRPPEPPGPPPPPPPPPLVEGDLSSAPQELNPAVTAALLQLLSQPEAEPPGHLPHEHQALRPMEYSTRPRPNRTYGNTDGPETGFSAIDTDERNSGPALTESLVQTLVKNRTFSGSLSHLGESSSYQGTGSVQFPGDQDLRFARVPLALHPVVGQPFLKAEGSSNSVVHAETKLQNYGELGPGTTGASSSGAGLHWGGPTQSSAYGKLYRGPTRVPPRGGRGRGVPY

Test [6] addresses T2, CDK7. The experiment in a line: CDK7 target occupancy in Jurkat cells. It is filed as cell-based.
[7] abbreviates: ATP 1 mM/100 μM, 60 min pre-incubation.

Chain of CDK13 (Q14004 whole entry, looked up, species assumed): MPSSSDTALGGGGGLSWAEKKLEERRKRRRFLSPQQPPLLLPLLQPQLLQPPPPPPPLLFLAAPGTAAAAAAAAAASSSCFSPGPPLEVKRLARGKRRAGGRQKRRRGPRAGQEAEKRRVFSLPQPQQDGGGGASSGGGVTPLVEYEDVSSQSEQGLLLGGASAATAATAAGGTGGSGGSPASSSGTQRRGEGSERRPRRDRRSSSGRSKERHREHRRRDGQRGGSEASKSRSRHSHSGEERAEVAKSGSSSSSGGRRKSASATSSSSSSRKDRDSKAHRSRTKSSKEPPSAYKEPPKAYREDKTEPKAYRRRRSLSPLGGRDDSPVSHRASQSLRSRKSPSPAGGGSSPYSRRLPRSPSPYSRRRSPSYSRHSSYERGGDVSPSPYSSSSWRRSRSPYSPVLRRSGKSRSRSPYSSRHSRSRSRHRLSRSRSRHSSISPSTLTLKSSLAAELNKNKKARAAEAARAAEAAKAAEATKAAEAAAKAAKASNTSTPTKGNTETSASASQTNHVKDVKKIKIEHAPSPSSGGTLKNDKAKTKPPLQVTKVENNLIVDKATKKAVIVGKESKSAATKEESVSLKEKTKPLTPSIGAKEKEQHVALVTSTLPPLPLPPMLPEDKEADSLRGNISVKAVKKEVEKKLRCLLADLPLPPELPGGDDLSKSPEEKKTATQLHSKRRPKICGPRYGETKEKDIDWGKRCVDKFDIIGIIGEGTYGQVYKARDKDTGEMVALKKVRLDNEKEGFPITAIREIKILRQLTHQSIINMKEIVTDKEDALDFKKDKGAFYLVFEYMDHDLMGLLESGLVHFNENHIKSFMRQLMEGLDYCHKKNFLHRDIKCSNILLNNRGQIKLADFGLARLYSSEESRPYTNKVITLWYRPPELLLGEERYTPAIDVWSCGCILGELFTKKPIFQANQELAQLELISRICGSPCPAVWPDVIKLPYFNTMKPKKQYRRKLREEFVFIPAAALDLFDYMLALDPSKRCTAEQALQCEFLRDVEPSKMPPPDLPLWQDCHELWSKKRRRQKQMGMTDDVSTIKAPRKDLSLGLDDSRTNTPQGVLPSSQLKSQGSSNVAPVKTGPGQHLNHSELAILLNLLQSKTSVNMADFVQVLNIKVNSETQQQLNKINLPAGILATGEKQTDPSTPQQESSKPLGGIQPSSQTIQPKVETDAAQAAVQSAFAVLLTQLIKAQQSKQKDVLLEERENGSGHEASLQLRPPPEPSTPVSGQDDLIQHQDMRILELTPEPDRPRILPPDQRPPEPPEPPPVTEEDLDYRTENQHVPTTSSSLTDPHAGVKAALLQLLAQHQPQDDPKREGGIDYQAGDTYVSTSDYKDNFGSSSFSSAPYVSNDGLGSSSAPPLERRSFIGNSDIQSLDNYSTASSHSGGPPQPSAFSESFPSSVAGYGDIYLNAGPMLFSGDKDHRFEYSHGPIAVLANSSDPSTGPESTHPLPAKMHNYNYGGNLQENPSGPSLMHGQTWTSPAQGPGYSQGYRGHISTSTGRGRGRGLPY
Chain of CDK13 (O75909 whole entry partner, looked up, species assumed): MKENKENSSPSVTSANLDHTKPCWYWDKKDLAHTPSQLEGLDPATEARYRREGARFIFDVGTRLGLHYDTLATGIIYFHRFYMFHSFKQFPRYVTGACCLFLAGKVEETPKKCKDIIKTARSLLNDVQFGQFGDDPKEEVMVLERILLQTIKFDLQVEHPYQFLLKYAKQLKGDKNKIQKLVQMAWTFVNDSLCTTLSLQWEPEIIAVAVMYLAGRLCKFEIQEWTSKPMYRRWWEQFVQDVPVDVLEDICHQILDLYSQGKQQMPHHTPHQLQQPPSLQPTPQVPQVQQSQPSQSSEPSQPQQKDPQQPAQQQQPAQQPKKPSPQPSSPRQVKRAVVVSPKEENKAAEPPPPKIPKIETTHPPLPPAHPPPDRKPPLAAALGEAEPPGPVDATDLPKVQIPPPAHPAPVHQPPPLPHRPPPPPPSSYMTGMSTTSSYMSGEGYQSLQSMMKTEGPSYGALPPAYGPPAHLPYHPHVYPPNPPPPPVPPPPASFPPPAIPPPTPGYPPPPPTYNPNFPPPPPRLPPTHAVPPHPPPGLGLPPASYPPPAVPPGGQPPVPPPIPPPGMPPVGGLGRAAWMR

A word on the IC50: it is the concentration that inhibits the measured activity by half. One may read the Kd as the concentration at which binding is half-saturated. A higher Kd goes with weaker binding. For the compound `C=CC(=O)N1CC=C(c2ccc(C(C)C(=O)Nc3cc(C4CC4)[nH]n3)cn2)CC1` (single isomer, unassigned) [Compound 6, 2-(1′-acryloyl-1′,2′,3′,6′-tetrahydro-[2,4′-bipyridin]-5-yl)-N-(5-cyclopropyl-1H-pyrazol-3-yl)propanamide], in test [1], the IC50 was 6 nM and the “Ratio CDK7/CDK13” value stood at 216.66. In test [2], the “Ratio CDK7/CDK12” value is given as 32.5 and the IC50 is 40 nM. For the same compound, the IC50 in test [3] (setting [7]) was found to be 1300 nM. For the same compound, the “CDK12 Target Occupancy (Tocc50) μM in Jurkat cells” value (shortened to “CDK12 Target Occupancy (Tocc50) μM”) in test [4] (Jurkat cells) turned out to be 0.012 µM. Moreover, the Kd in test [5] is < 25 nM.
On to `C[C@H](C(=O)Nc1cc(C2CC2)[nH]n1)c1ccc(C2=CCN(C(=O)/C=C/CN(C)C)CC2)cc1` [Compound 15, (S,E)-N-(5-cyclopropyl-1H-pyrazol-3-yl)-2-(4-(1-(4-(dimethylamino)but-2-enoyl)-1,2,3,6-tetrahydropyridin-4-yl)phenyl)propanamide], for which, in test [1], the IC50 was 18.8 nM and the “Ratio CDK7/CDK13” value is listed as 33.03. For the same compound, in test [2], the “Ratio CDK7/CDK12” value worked out at 2.64 and 235 nM corresponded to half-maximal inhibition (IC50). In test [6], the “Jurkat Cells, CDK7 Target Occ50” value was determined as 1671 nM. The IC50 in test [3] (setting [7]) came to 621 nM. Besides, the “Ratio CDK7/CDK12” value in test [4] was determined as 8.175. Also, in test [4] (Jurkat cells), the “Jurkat Cells, CDK12 Target Occ50” value was determined as 204.4 nM and the “CDK12 Target Occupancy (Tocc50) μM” value was 0.204 µM. The “binding affinity towards CDK12 in comparison to CDK7” value in test [4] (Jurkat cells target occupancy) was > 8 fold.
With `C=CC(=O)N1CCN(c2ccc(C(C)C(=O)Nc3cc(C4CC4)[nH]n3)cc2)CC1` (stereo not drawn) [Compound 17, 2-(4-(4-acryloylpiperazin-1-yl)phenyl)-N-(5-cyclopropyl-1H-pyrazol-3-yl)propanamide], in test [1], the IC50 amounted to 81 nM and the “Ratio CDK7/CDK13” value is on record as 98.27. In test [2], the “Ratio CDK7/CDK12” value came to 13.49 and 590 nM corresponded to half-maximal inhibition (IC50). Besides, the IC50 in test [3] was found to be 7960 nM. The “CDK12 Target Occupancy (Tocc50) μM” value in test [4] (Jurkat cells) came out at 0.030 µM. Besides, the Kd in test [5] is > 100 nM.

The values are drawn from patent publication US10894786B2, “Substituted pyrazole derivatives as selective CDK12/13 inhibitors” (Aurigene Discovery Technologies Limited, priority 2018, dated 2021).
